{
  "source": "patent US11014934B2",
  "about": "“Antiseptic drug” (AO “TATKHIMFARMPREPARATY”, priority 2017, dated 2021)",
  "key": {"[1]": {"system": "Cells of a light cow embryo (LCE)", "experiment": "State of the LCE cell monolayer with the drug without the virus", "format": "cell-based", "experimental": "Cells of a light cow embryo (LCE) are obtained from the Federal State Budgetary Institution “All-Russian Institute of Experimental Veterinary Medicine”, Moscow. Bovine rhinotracheitis virus (herpes virus family), vaccine strain “TK-A (VIEV)-V2” was obtained from the Federal State Budgetary Institution “All-Russian Institute of Experimental Veterinary Medicine”, Moscow.\nThe virus was incubated in the presence of compound I in a culture medium at 37° C. for one hour at various concentrations; miramistin and benzalkonium chloride served as control preparations. After incubation of the virus with substances, it was added to the cell culture, which was then incubated at 37° C., 5% CO2 for 72 hours.\nEvaluation of the cytopathogenic effect was carried out visually by the state of the cell monolayer as compared with the controls (virus without incubation with the drug, the studied drug concentrations without the virus). The virus titer was calculated using the method of Reed-Muench in the modification of Ashmarin and expressed in Ig TCD50/ml."}, "E. coli in the biofilm": {"system": "E. coli in the biofilm", "experiment": "Antibacterial activity against cells immersed in a biofilm matrix (CFU, drop plate)", "format": "cell-based", "experimental": "(§1) To determine the effectiveness of the antibiotic against bacteria in […], bacteria were grown in Basal medium for 3 days at a temperature of 37° C. without swinging to obtain a dense biofilm [A. R Kayumov, Khakimullina E., Sharafutdinov I, Trizna E., Latypova L., Lien Thi, Margulis A., Bogachev M, Kurbangalieva A. Inhibition of biofilm formation in Bacillus subtilis by new halogenated furanoses. J. Antibiotics.—2014.—V. 68.—No 5.—P. 297-301.]. Then the biofilm was washed with a sterile 0.9% NaCl solution and fresh sterile medium was poured. Antiseptics were added to concentrations (1-16)×MBC (minimum bactericidal concentration) and incubated for 24 hours. Then the culture fluid was removed from the wells, washed once with 0.9% NaCl solution to remove non-adherent cells, and cell viability in biofilms was evaluated by counting CFU by Drop plate analysis [B. Herigstad, M Hamilton, J. Heersink How to optimize the drop plate method for enumerating bacteria. J Microbiol Methods.—2001.—V. 44.—P. 121-129]. To do this, the biofilm was mechanically removed from the surface and homogenized in 0.9% NaCl by pipetting and ultrasonic treatment. Then, serial 10-fold dilutions of the bacterial suspension in 0.9% NaCl were prepared, and 5 μI of each suspension were transferred to plates with dense nutrient medium. CFU was counted from drops containing 5-10 colonies.\n(§2) The results of the study of antimicrobial activity against cells of the studied strains immersed in the biofilm matrix, in comparison with miramistin and benzalkonium chloride, are presented in FIGS. 1 and 2."}, "[2]": {"system": "K. pneumonia in the biofilm", "experiment": "Antibacterial activity against cells immersed in a biofilm matrix (CFU, drop plate)", "format": "cell-based", "experimental": "as §1, §2"}, "[3]": {"system": "S.marcescens in the biofilm", "experiment": "Antibacterial activity against cells immersed in a biofilm matrix (CFU, drop plate)", "format": "cell-based", "experimental": "as §1, §2"}, "clinical staphylococci": {"system": "clinical staphylococci", "experiment": "MIC screening, summary for clinical staphylococci", "format": "cell-based", "conditions": "range over clinical staphylococci, one strain excepted", "experimental": "(§3) A comparative assessment of the spectrum of antibacterial action was carried out on archival and clinical strains of gram-positive and gram-negative microorganisms in accordance with the [Opredeleniye chuvstvitel'nosti mikroorganizmov k antibakterial'nym preparatam (Metodicheskiye ukazaniya MUK 4.2.1890-04). Utverzhdeny i vvedeny v deystviye Glavnym gosudarstvennym sanitarnym vrachom Rossiyskoy Federatsii G. G. Onishchenko 04.03.2004 g. Determination of the sensitivity of microorganisms to antibacterial drugs (Guidelines MUK 4.2.1890-04). Approved and put into effect by the Chief State Sanitary Doctor of the Russian Federation G. G. Onishchenko on 4 Mar. 2004].\n(§4) The value of the minimum inhibitory concentration (MIC) was determined by the method of serial dilutions on Müller-Hinton broth using 96-well sterile plates. […] The growth of cultures was assessed visually, comparing the growth of microorganisms in the presence of test compounds with the growth of culture without them. […] The first lowest concentration of the studied substance (from a series of consecutive dilutions), where bacterial growth is not visually determined, is considered to be the minimum inhibitory concentration (MIC). MIC was determined by the method of serial dilutions in broth with increment=2, so the differences of neighboring dilutions are not considered to be significant. […]"}, "clinical enterococci": {"system": "clinical enterococci", "experiment": "MIC screening, summary for clinical enterococci", "format": "cell-based", "conditions": "range over clinical enterococci", "experimental": "as §3, §4"}, "[4]": {"system": "mice of the CD-1 (ICR) line", "experiment": "Acute toxicity in mice after intragastric administration", "format": "in vivo", "experimental": "(§5) The study was performed on mice of the CD-1 (ICR) line (6-8 weeks, weight not less than 18 g) of both sexes. […] Mice administered doses were 3000 mg/kg, 2000 mg/kg, 1000 mg/kg, 500 mg/kg and 50 mg/kg."}, "[5]": {"experiment": "Acute toxicity in mice after intragastric administration", "format": "in vivo", "conditions": "both sexes, mouse, in vivo, po; Mice CD-1, intragastric administration; read-out: LD50 (95% confidence interval)", "experimental": "as §5"}, "[6]": {"conditions": "both, CD-1 (ICR), mouse, in vivo"}},
  "data": [
    {"molecule": "CCCCCCCCCCCCCC(=O)NCCC[N+](C)(C)Cc1ccccc1.O.[Cl-]", "note": "[Miramistin, benzyldimethyl [3-(myristoylamino)propyl]-ammonium chloride monohydrate]", "values": [
      {"measurement": "destruction of the monolayer, drug without the virus", "setting": "[1]; 50 μg/ml", "result": "− (−0-10% destruction of the monolayer)"},
      {"measurement": "destruction of the monolayer, drug without the virus", "setting": "[1]; 100 μg/ml", "result": "− (−0-10% destruction of the monolayer)"},
      {"measurement": "destruction of the monolayer, drug without the virus", "setting": "[1]; 150 μg/ml", "result": "− (−0-10% destruction of the monolayer)"},
      {"measurement": "destruction of the monolayer, drug without the virus", "setting": "[1]; 200 μg/ml", "result": "− (−0-10% destruction of the monolayer)"}
    ]},
    {"molecule": "CCCCCCCCCCCC[N+](C)(C)Cc1cnc(C[N+](C)(C)CCCCCCCCCCCC)c2c1COC(CC)O2", "note": "(stereo not shown) [Compound I, 5,8-(Bis(methylene (N, N-dimethyl-N-dodecylammonium))-2-ethyl-4H-[1,3]dioxino [4,5-c]pyridiniumdichloride]", "values": [
      {"measurement": "activity in the biofilm compared with comparison antiseptics", "setting": "E. coli in the biofilm", "result": "the same activity as miramistine and benzalconium chloride"},
      {"measurement": "activity in the biofilm compared with comparison antiseptics", "setting": "[2]", "result": "the same activity as miramistine and benzalconium chloride"},
      {"measurement": "activity in the biofilm compared with comparison antiseptics", "setting": "[3]", "result": "the same activity as miramistine and benzalconium chloride"},
      {"measurement": "MIC", "setting": "clinical staphylococci", "result": "1 to 8", "unit": "µg/mL"},
      {"measurement": "MIC for clinical enterococci", "setting": "clinical enterococci", "result": "0.03 to 4", "unit": "µg"},
      {"measurement": "hazard class in accordance with GOST 12.1.007-76", "setting": "[4]; acute toxicity, oral, mice", "result": "3rd class of moderately hazardous harmful substances"},
      {"measurement": "toxicity class according to the Globally Harmonized System (GOST 32644-2014)", "setting": "[4]; acute toxicity, oral, mice", "result": 4, "unit": "th toxicity class"},
      {"measurement": "LD16", "setting": "[4]; [6]", "result": 788, "unit": "mg/kg"},
      {"measurement": "LD86", "setting": "[4]; [6]", "result": 2623, "unit": "mg/kg"},
      {"measurement": "Number of died animals in the group", "setting": "[4]; both, CD-1 (ICR), mouse, in vivo, 50 mg/kg", "result": "0/6"},
      {"measurement": "Number of died animals in the group", "setting": "[4]; both, CD-1 (ICR), mouse, in vivo, 500 mg/kg", "result": "0/6"},
      {"measurement": "Number of died animals in the group", "setting": "[4]; both, CD-1 (ICR), mouse, in vivo, 1000 mg/kg", "result": "3/6"},
      {"measurement": "Number of died animals in the group", "setting": "[4]; both, CD-1 (ICR), mouse, in vivo, 2000 mg/kg", "result": "5/10"},
      {"measurement": "Number of died animals in the group", "setting": "[4]; both, CD-1 (ICR), mouse, in vivo, 3000 mg/kg", "result": "4/4"},
      {"measurement": "LD50", "setting": "[5]", "result": 1710, "unit": "mg/kg"}
    ]}
  ]
}
